Data on 3 compounds can be found in PMC4891047, “A 20(S)-protopanoxadiol derivative overcomes multi-drug resistance by antagonizing ATP-binding cassette subfamily B member 1 transporter function” (Oncotarget, 2016).

Usually EC50 stands for the concentration that produces a half-maximal response. A lower EC50 goes with higher potency in that assay.

Assay [1] addresses T1, ABCB1 (Homo sapiens, UniProt P08183).
T1 construct: membrane vesicles (Pgp-Glo assay system)
Put plainly: biochemical.

Assay [2] addresses T1, ABCB1. Put plainly: biochemical. The source holds these as a separate data set.

The structures appear in SMILES notation. Read-outs that look alike come from different tables or passages of the source.

T1 sequence (P08183 whole entry): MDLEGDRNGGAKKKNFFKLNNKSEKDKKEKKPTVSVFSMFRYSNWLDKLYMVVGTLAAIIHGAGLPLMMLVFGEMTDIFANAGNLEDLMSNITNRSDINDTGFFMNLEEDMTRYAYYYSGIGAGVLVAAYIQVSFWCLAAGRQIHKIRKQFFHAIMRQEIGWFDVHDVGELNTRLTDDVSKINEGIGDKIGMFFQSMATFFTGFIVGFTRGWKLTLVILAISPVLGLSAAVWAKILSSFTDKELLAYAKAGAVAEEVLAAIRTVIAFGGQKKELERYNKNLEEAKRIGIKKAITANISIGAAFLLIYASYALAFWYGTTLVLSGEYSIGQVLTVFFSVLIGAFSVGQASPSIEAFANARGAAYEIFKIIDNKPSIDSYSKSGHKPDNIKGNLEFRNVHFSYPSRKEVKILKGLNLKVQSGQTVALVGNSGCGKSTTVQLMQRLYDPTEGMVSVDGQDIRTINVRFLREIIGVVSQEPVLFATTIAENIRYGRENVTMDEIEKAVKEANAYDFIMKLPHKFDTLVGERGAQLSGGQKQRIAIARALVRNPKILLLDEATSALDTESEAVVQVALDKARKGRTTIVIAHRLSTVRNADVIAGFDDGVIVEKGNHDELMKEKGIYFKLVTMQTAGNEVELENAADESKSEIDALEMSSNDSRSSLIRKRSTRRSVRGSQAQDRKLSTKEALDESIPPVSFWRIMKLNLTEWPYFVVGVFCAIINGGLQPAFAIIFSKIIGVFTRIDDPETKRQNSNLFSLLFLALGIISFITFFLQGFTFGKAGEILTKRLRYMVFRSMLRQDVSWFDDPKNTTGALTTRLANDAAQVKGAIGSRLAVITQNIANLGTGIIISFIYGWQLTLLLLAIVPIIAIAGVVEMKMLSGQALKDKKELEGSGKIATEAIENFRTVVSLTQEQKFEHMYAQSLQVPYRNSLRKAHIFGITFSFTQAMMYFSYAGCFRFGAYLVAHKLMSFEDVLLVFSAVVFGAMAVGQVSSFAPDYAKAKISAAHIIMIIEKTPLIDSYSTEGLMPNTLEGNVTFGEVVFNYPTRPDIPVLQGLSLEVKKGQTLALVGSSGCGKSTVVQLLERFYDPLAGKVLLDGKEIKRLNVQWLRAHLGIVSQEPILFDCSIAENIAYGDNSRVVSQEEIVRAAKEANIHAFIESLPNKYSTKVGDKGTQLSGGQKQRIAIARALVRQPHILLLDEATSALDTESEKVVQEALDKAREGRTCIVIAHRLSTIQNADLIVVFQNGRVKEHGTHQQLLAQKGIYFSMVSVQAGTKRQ

`COc1ccc(CNCCC[C@](C)(O)[C@H]2CC[C@]3(C)[C@@H]2[C@H](O)C[C@@H]2[C@@]4(C)CC[C@H](O)C(C)(C)[C@@H]4CC[C@]23C)cc1` [PPD11]: the EC50 in assay [1] stood at 2.38 µM.

Compound `CC1(C)[C@@H](O)CC[C@]2(C)[C@H]3C[C@@H](O)[C@@H]4[C@@H]([C@@](C)(O)CCCNCc5ccccc5)CC[C@@]4(C)[C@]3(C)CC[C@@H]12` [PPD12] displayed a concentration for a half-maximal effect (EC50) in assay [2] of 1.52 µM.

For the compound `CC(C)=CCC[C@](C)(O)[C@H]1CC[C@]2(C)[C@@H]1[C@H](O)C[C@@H]1[C@@]3(C)CC[C@H](O)C(C)(C)[C@@H]3CC[C@]12C` [PPD, 20(S)-protopanoxadiol], the response in assay [1] was half-maximal at 3.13 µM (EC50).
